These results are taken from patent US8785488B2 (Exelixis Patent Company LLC, priority 2009, dated 2014).

The target in assay [1] is T1, human TGR5 (h-TGR5) (Homo sapiens, UniProt Q8TDU6).
T1 construct: expressed in transfected cells
T1 sequence (Q8TDU6 1-330): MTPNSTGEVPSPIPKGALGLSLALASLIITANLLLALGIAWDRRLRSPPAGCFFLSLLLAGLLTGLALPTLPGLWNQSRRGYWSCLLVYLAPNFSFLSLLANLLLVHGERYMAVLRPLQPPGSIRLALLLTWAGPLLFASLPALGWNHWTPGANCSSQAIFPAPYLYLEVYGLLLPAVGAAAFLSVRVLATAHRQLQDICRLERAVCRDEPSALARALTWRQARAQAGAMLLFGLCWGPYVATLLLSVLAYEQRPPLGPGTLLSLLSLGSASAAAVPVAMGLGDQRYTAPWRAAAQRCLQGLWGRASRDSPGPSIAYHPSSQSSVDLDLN
Briefly: TGR5/CRE-Luciferiase Assay (HEK 293 hTGR5/CRE-Luc cells). It is filed as cell-based. Conditions: h-TGR5 CRE-Luc EC50, Table 1; read-out: CRE-Luc (EC50). In outline: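 HEK293 cells stably carrying hTGR5 and a CRE-luciferase reporter were exposed to serially diluted compounds (diluted in DMEM with 5% DMSO) for 6 h. Cells were then lysed in luciferase buffer, luminescence was read, and EC50 values were derived from dose-response curves.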

Assay [2] has as its target T2, h-TGR5 (Homo sapiens, UniProt Q8TDU6).
T2 construct: expressed in transfected cells
T2 sequence (Q8TDU6 1-330): T1 sequence (Q8TDU6 1-330)
Briefly: TGR5 cAMP Assay using Cisbio cAMP Dynamic2 htrf kit (hTGR5CRE-luc HEK 293 cells). The format is cell-based. The following applies: h-TGR5 cAMP EC50, Table 1; read-out: cAMP (EC50). In outline: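 […], 4000 hTGR5CRE-luc HEK 293 cells per well, with 0.5 mM IBMX and d2-cAMP, were incubated 30 min at room temperature with compounds in 8-point half-log series, in quadruplicate.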

For orientation: EC50 means the concentration that produces a half-maximal response. For the molecule `COc1cc(C(C)(C)c2cnc(SCc3c(F)cc(C(=O)NCS(=O)(=O)O)cc3F)n2-c2ccc(F)cc2)ccc1Cl` [({[4-({[5-{1-[4-chloro-3-(methyloxy)phenyl]-1-methylethyl}-1-(4-fluorophenyl)-1H-imidazol-2-yl]thio}methyl)-3,5-difluorophenyl]carbonyl}amino)methanesulfonic acid], the EC50 in assay [1] and in assay [2] was < 0.1 µM in each case.

As for `COc1cc(C(C)(C)c2cnc(SCc3c(F)cc(S(=O)(=O)NC(=O)NN4CCOCC4)cc3F)n2-c2ccc(F)cn2)ccc1Cl` [4-({[5-{1-[4-chloro-3-(methyloxy)phenyl]-1-methylethyl}-1-(5-fluoropyridin-2-yl)-1H-imidazol-2-yl]thio}methyl)-3,5-difluoro-N-[(morpholin-4-ylamino)carbonyl]benzenesulfonamide], the EC50 in assay [1] and in assay [2] was 0.1 to 1 µM throughout.

`COc1ccc(C(C)(C)c2cnc(SCc3ccc(F)cc3Cl)n2-c2ccc(F)cc2)cc1OC` [5-{1-[3,4-bis(methyloxy)phenyl]-1-methylethyl}-2-{[(2-chloro-4-fluorophenyl)methyl]thio}-1-(4-fluorophenyl)-1H-imidazole]: the EC50 is < 0.1 µM in assay [1] and 0.1 to 1 µM in assay [2].

For `COc1cc(-n2c(C(C)(C)c3ccc(S(N)(=O)=O)c(Cl)c3)cnc2SCc2c(F)cc(C(=O)NC(CCCNC(=N)N)C(=O)O)cc2Cl)ccc1F` [N-2-[(4-{[(5-{1-[4-(aminosulfonyl)-3-chlorophenyl]-1-methylethyl}-1-[4-fluoro-3-(methyloxy)phenyl]-1H-imidazol-2-yl)thio]methyl}-3-chloro-5-fluorophenyl)carbonyl]-D-arginine], the EC50 in assay [1] and in assay [2] was < 0.1 µM each time.

Take `CC(C)(c1ccc(Cl)c(Cl)c1)c1cnc(SCc2c(F)cc(C(N)=O)cc2F)n1-c1ccc(F)cc1` [4-[({5-[1-(3,4-dichlorophenyl)-1-methylethyl]-1-(4-fluorophenyl)-1H-imidazol-2-yl}thio)methyl]-3,5-difluorobenzamide]: the EC50 in assay [1] and in assay [2] was 0.1 to 1 µM each time.

For `CC(C)(c1ccc(CO)c(Cl)c1)c1cnc(SCc2ccc(F)cc2Cl)n1-c1ccc(F)cc1` [(2-chloro-4-{1-[2-{[(2-chloro-4-fluorophenyl)methyl]thio}-1-(4-fluorophenyl)-1H-imidazol-5-yl]-1-methylethyl}phenyl)methanol], the EC50 in assay [1] and in assay [2] was 0.1 to 1 µM throughout.

Consider `COc1ccc(C(C)(C)c2cnc(SCc3ccc(C(N)=O)cc3F)n2-c2ccc(F)cc2)cc1OC` [4-({[5-{1-[3,4-bis(methyloxy)phenyl]-1-methylethyl}-1-(4-fluorophenyl)-1H-imidazol-2-yl]thio}methyl)-3-fluorobenzamide], for which the EC50 is 0.1 to 1 µM in assay [1] and < 0.1 µM in assay [2].

As to `COc1cc(-n2c(C(C)(C)c3cccc(S(C)(=O)=O)c3)cnc2SCc2c(F)cc(C(=O)O)cc2F)ccc1F` [3,5-difluoro-4-{[(1-[4-fluoro-3-(methyloxy)phenyl]-5-{1-methyl-1-[3-(methylsulfonyl)phenyl]ethyl}-1H-imidazol-2-yl)thio]methyl}benzoic acid], the concentration for a half-maximal effect (EC50) in assay [1] and in assay [2] was 0.1 to 1 µM throughout.

Take `CC(C)(c1ccc(S(N)(=O)=O)c(Cl)c1)c1cnc(SCc2c(F)cc(C(=O)O)cc2F)n1-c1ccc(F)c(F)c1` [4-({[5-{1-[4-(aminosulfonyl)-3-chlorophenyl]-1-methylethyl}-1-(3,4-difluorophenyl)-1H-imidazol-2-yl]thio}methyl)-3,5-difluorobenzoic acid]: the half-maximal effective concentration (EC50) in assay [1] and in assay [2] was < 0.1 µM throughout.

As to `CC(C)(c1ccc(F)c(F)c1)c1cnc(SCc2ccc(S(N)(=O)=O)cc2Cl)n1-c1ccc(F)cc1` [3-chloro-4-[({5-[1-(3,4-difluorophenyl)-1-methylethyl]-1-(4-fluorophenyl)-1H-imidazol-2-yl}thio)methyl]benzenesulfonamide], the EC50 in assay [1] and in assay [2] was 0.1 to 1 µM throughout.

`CC(C)(c1ccc(Cl)c(Cl)c1)c1cnc(SCc2ccc(F)c(C(=O)NCC(=O)O)c2)n1-c1ccc(F)cc1` [N-({5-[({5-[1-(3,4-dichlorophenyl)-1-methylethyl]-1-(4-fluorophenyl)-1H-imidazol-2-yl}thio)methyl]-2-fluorophenyl}carbonyl)glycine]: the EC50 in assay [1] and in assay [2] was 0.1 to 1 µM each time.

As for `COc1ccc(C(C)(C)c2cnc(SCc3c(F)cc(C(=O)O)cc3F)n2-c2ccc(F)cc2)cc1Cl` [4-({[5-{1-[3-chloro-4-(methyloxy)phenyl]-1-methylethyl}-1-(4-fluorophenyl)-1H-imidazol-2-yl]thio}methyl)-3,5-difluorobenzoic acid], the EC50 in assay [1] and in assay [2] was < 0.1 µM in each case.

Take `COc1cc(-n2c(C(C)(C)c3ccc(Cl)c(Cl)c3)cnc2SCc2ccc(C#CCNC(=N)N)c(C(=O)O)c2)ccc1F` [2-(3-{[amino(imino)methyl]amino}prop-1-yn-1-yl)-5-[({5-[1-(3,4-dichlorophenyl)-1-methylethyl]-1-[4-fluoro-3-(methyloxy)phenyl]-1H-imidazol-2-yl}thio)methyl]benzoic acid]: the EC50 in assay [1] and in assay [2] was 0.1 to 1 µM in each case.

For the molecule `COc1cc(-n2c(C(C)(C)c3ccc(S(C)(=O)=O)cc3)cnc2SCc2c(F)cc(C(=O)O)cc2F)ccc1F` [3,5-difluoro-4-{[(1-[4-fluoro-3-(methyloxy)phenyl]-5-{1-methyl-1-[4-(methylsulfonyl)phenyl]ethyl}-1H-imidazol-2-yl)thio]methyl}benzoic acid], the concentration giving a half-maximal response (EC50) was 0.1 to 1 µM in assay [1] and < 0.1 µM in assay [2].

Regarding `CC(C)(c1ccc(Cl)c(Cl)c1)c1cnc(SCc2c(F)cc(C(=O)NO)cc2F)n1-c1ccc(F)cc1` [4-[({5-[1-(3,4-dichlorophenyl)-1-methylethyl]-1-(4-fluorophenyl)-1H-imidazol-2-yl}thio)methyl]-3,5-difluoro-N-hydroxybenzamide], the half-maximal effective concentration (EC50) in assay [1] and in assay [2] was < 0.1 µM throughout.

Take `CC(C)(c1ccc(C#N)c(Cl)c1)c1cnc(SCc2ccc(F)cc2Cl)n1-c1ccc(F)cc1` [2-chloro-4-{1-[2-{[(2-chloro-4-fluorophenyl)methyl]thio}-1-(4-fluorophenyl)-1H-imidazol-5-yl]-1-methylethyl}benzonitrile]: the EC50 in assay [1] and in assay [2] was 0.1 to 1 µM each time.

Take `CC(C)(c1ccc(S(N)(=O)=O)c(Cl)c1)c1cnc(SCc2c(F)cc(C(=O)O)cc2Cl)n1-c1ccc(F)cc1` [4-({[5-{1-[4-(aminosulfonyl)-3-chlorophenyl]-1-methylethyl}-1-(4-fluorophenyl)-1H-imidazol-2-yl]thio}methyl)-3-chloro-5-fluorobenzoic acid]: the 50% effective concentration (EC50) in assay [1] and in assay [2] was < 0.1 µM in each case.

For `COc1cc(-n2c(C(C)(C)c3ccc(S(N)(=O)=O)cc3)cnc2SCc2c(F)cc(C(=O)O)cc2F)ccc1F` [4-{[(5-{1-[4-(aminosulfonyl)phenyl]-1-methylethyl}-1-[4-fluoro-3-(methyloxy)phenyl]-1H-imidazol-2-yl)thio]methyl}-3,5-difluorobenzoic acid], the 50% effective concentration (EC50) in assay [1] and in assay [2] was 0.1 to 1 µM throughout.

As for `CC(C)(c1ccc(Cl)c(Cl)c1)c1cnc(SCc2c(F)cc(C(=O)O)cc2Cl)n1-c1ccc(F)c(OCCCO)c1` [3-chloro-4-{[(5-[1-(3,4-dichlorophenyl)-1-methylethyl]-1-{4-fluoro-3-[(3-hydroxypropyl)oxy]phenyl}-1H-imidazol-2-yl)thio]methyl}-5-fluorobenzoic acid], the EC50 in assay [1] and in assay [2] was 0.1 to 1 µM throughout.

For `COc1cc(C(C)(C)c2cnc(SCc3c(F)cc(OCCCNC(=N)N)cc3F)n2-c2ccc(F)cc2)ccc1Cl` [1-(3-{[4-({[5-{1-[4-chloro-3-(methyloxy)phenyl]-1-methylethyl}-1-(4-fluorophenyl)-1H-imidazol-2-yl]thio}methyl)-3,5-difluorophenyl]oxy}propyl)guanidine], the half-maximal effective concentration (EC50) in assay [1] and in assay [2] was < 0.1 µM throughout.

Take `COc1ccc(C(C)(C)c2cnc(SCc3c(F)cc(C#N)cc3F)n2-c2ccc(F)cc2)cc1Cl` [4-({[5-{1-[3-chloro-4-(methyloxy)phenyl]-1-methylethyl}-1-(4-fluorophenyl)-1H-imidazol-2-yl]thio}methyl)-3,5-difluorobenzonitrile]: the EC50 in assay [1] and in assay [2] was < 0.1 µM each time.

Consider `CC(C)(c1ccc(Cl)c(Cl)c1)c1cnc(SCc2c(F)cc(C(=O)O)cc2F)n1-c1ccc(F)c(C(F)F)c1` [4-[({5-[1-(3,4-dichlorophenyl)-1-methylethyl]-1-[3-(difluoromethyl)-4-fluorophenyl]-1H-imidazol-2-yl}thio)methyl]-3,5-difluorobenzoic acid], for which the concentration for a half-maximal effect (EC50) in assay [1] is < 0.1 µM; in assay [2] it was 0.1 to 1 µM.

On to `COc1cc(-n2c(C(C)(C)c3ccc(Cl)c(OC)c3)cnc2SCc2ccc(S(=O)(=O)NC(=O)NN3CCCC3)cc2Cl)ccc1F` [3-chloro-4-{[(5-{1-[4-chloro-3-(methyloxy)phenyl]-1-methylethyl}-1-[4-fluoro-3-(methyloxy)phenyl]-1H-imidazol-2-yl)thio]methyl}-N-[(pyrrolidin-1-ylamino)carbonyl]benzenesulfonamide], for which the half-maximal effective concentration (EC50) in assay [1] and in assay [2] was < 0.1 µM each time.
